Test results published in ChEMBL document CHEMBL1126496, “4-Aminomethyl chromans: dependence of serotonin and dopamine binding upon aromatic ring substitution” (Bioorg Med Chem Lett, 1993).

What was measured:
[1] = target: T1, 5-hydroxytryptamine receptor 1A (Homo sapiens, UniProt P08908); experiment: Compound was tested for its binding affinity against 5-hydroxytryptamine 1A receptor using [3H]8-OH-DPAT radioligand
T1 sequence (P08908 whole entry): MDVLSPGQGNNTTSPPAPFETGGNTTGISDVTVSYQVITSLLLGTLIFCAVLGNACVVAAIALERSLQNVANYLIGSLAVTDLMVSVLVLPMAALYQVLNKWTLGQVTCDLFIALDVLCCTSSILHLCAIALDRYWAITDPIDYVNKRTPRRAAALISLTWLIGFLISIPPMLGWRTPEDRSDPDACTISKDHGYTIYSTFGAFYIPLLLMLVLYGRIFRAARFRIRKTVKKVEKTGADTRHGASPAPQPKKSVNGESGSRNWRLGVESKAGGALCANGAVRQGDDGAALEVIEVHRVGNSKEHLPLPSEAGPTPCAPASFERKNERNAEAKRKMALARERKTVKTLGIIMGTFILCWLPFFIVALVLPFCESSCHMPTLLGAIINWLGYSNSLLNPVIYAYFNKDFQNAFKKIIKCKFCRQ

D(2) dopamine receptor = D(2) dopamine receptor (Rattus norvegicus, UniProt P61169); experiment: Compound was tested for its binding affinity against Dopamine receptor D2 using [3H]raclopride radioligand
D(2) dopamine receptor, sequence (P61169 whole entry): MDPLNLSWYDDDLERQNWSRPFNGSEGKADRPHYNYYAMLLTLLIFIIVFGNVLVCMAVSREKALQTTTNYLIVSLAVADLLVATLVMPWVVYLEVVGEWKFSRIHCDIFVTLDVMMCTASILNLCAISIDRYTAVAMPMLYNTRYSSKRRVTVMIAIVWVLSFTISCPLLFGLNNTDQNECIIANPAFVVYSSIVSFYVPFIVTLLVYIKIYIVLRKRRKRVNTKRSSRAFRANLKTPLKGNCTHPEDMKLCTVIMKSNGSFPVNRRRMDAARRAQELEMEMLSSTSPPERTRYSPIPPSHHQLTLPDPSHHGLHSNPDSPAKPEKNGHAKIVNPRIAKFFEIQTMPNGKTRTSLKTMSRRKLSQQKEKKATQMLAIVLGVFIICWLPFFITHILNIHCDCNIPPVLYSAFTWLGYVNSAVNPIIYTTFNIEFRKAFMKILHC

| SMILES | Ki [1] [nM] | Ki (D(2) dopamine receptor) [nM] |
| --- | --- | --- |
| COc1cccc2c1C(CN1CCC3(CC1)C(=O)NCN3c1ccccc1)CCO2 (stereo unspecified) | 12 | 29 |
| COc1ccc2c(c1)C(CN1CCC3(CC1)C(=O)NCN3c1ccccc1)CCO2 (stereo unspecified) | 247 | 164 |
| COc1ccc2c(c1)OCCC2CNCCCc1ccccc1 (stereo unspecified) | 28 | > 1000 |
| COc1ccc2c(c1)OCCC2CN1CCC2(CC1)C(=O)NCN2c1ccccc1 (stereo unspecified) | 611 | 274 |
| COc1cccc2c1OCCC2CNCCCc1ccccc1 (stereo unspecified) | 7 | 620 |
| COc1ccc2c(c1)C(CNCCCc1ccccc1)CCO2 (stereo unspecified) | 93 | > 1000 |
| COc1cccc2c1OCCC2CN1CCC2(CC1)C(=O)NCN2c1ccccc1 (stereo unspecified) | > 1000 | > 1000 |
| COc1cccc2c1C(CNCCCc1ccccc1)CCO2 (stereo unspecified) | > 1000 | 279 |
